Key:
A344C/KCNE1 = A344C/KCNE1 (Homo sapiens, UniProt P15382+P51787, A344C); assay: TEVC, mutant channel A344C/KCNE1 in oocytes; assay type: cell-based; settings: Kv7.1 A344C mutant with KCNE1
Excerpt: Ala scanning was previously used to identify specific residues that form the putative binding sites for chromanol and benzodiazepine derivatives that are considered to be classical pore blockers of Kv7.1 channels. Here we applied Ala scanning to multiple segments of the Kv7.1 α-subunit to identify potential AC-1 interaction sites in the extended pore region of Kv7.1/KCNE1 channels (Fig. 3a). In cases where mutation to Ala precluded channel function, alternative residues were introduced. […] Instead, most of these crucial residues cluster around a ‘window' formed uniquely in the preopen–closed state model of the Kv7.1/KCNE1 channel[33] (Fig. 3c, magenta residues). […]
(§1) Template cDNAs (wildtype or mutant human Kv7.1 in pSGEM, wildtype human KCNE1 in pSP64) were linearized with a suitable restriction enzyme (Nhe I/pSGEM, Eco RI/pSP64). cRNA was synthesized from 1 μg linearized cDNA by in vitro transcription (mMessage mMachine T7 or SP6 kit, Ambion, Life Technologies Darmstadt, Germany). cRNA concentrations were determined by photometry (Nanodrop, Peqlab, Erlangen, Germany) and cRNA quality was checked by agarose gel electrophoresis. […]
TEVC measurements were performed using a TurboTec-10CD amplifier (npi Electronic, Tamm, Germany) and an ITC-16 AD/DA-interface (Instrutech Corporation, Port Washington, New York, USA). […] Tail currents were recorded at −120 mV. […]

homomeric Kv7.1 = tested on: T1, homomeric Kv7.1; assay: TEVC, homomeric Kv7.1 channels in oocytes; assay type: cell-based, human
T1 construct: expressed in transfected cells; host or cells: Xenopus oocytes, cRNA injected
Description: Figure 1 AC-1 inhibits Kv7.1 channels only in the presence of KCNE1. (a) Structure of adamantane compound AC-1. (b) Concentration-response relationship for inhibition of Kv7.1/KCNE channel currents by AC-1. Kv7.1/KCNE1 channel currents were activated by repetitive 7 s pulses to +40 mV applied from a holding potential of −80 mV. Inhibition was determined as percent change in current amplitude at the end of the depolarizing test pulse to +40 mV. Data were fitted (smooth curve) to the Hill equation (n=5–70,±s.e.m.). (c) The inhibitory effect of different AC-1 concentrations on Kv7.1/KCNE1 channels was determined by repetitive 7 s pulses to +40 mV applied from a holding potential of −80 mV. […] Inhibition of current was determined as described above and plotted against the amount (in ng) of cRNA injected into individual oocytes. […]
as §1

Kv1.5 = tested on: T2, Kv1.5; assay: TEVC, Kv1.5 channels; assay type: cell-based; settings: 1 μM
T2 construct: expressed in transfected cells

SMILES: CC(C)(Oc1ccc(Cl)cc1)C(=O)NC1C2CC3CC1CC(NS(C)(=O)=O)(C3)C2 (stereo not shown) [AC-1, 2-(4-chlorophenoxy)-2-methyl-N-[5-[(methylsulfonyl)amino]tricyclo[3.3.1.13,7]dec-2-yl]-propanamide]
- IC50 (A344C/KCNE1): 1 ± 0.2 µM
- effect on homomeric Kv7.1 (homomeric Kv7.1; 1 μM): does not affect
- effect of different concentrations on Kv7.1 homotetramers (homomeric Kv7.1; different concentrations, up to 10 μM, +40 mV): Lack of effect
- effect on Kv1.5 (Kv1.5): does not affect

Source: PMC5064022, “KCNE1 induces fenestration in the Kv7.1/KCNE1 channel complex that allows for highly specific pharmacological targeting” (Nature Communications, 2016)
